Columns and labels:
Experiment in all cases: Antibiotics sensitivity, agar dilution MIC
Type in all cases: cell-based
[1] = system: Bifidobacterium adolescentis KCTC3352; conditions: strain KCTC3352; Table 5
Method: (§1) Antibiotics sensitivity test was performed for comparative analysis of phenotypes of the lactobacillus strain separated in Example 1 and standard strains purchased from KCTC. In order to find out the minimum inhibitory concentrations (MICs) of 18 kinds of antibiotics (ampicillin, mupirocin, amoxicillin/clavulanic acid, oxacillin, cefonicid, cefazolin, ceftazidime, cefotaxime, ceftriaxone, tigecyclin, streptomycin, vancomycin, teicoplanin, daptomycin, linezolid, clindamycin, quinupristin/dalfopristin and tobramycin), agar dilution method was performed according to the Clinical and Laboratory Standards Institute (CLSI, 2003), and the results were listed in Tables 4 and 5.

[2] = system: Bifidobacterium longum SPM1206; conditions: strain SPM1206; Table 5
Method: as §1

[3] = system: Bifidobacterium adolescentis SPM0212; conditions: strain SPM0212; Table 5
Method: as §1

[4] = system: Bifidobacterium adolescentis SPM1604; conditions: strain SPM1604; Table 5
Method: as §1

[5] = system: Bifidobacterium pseudocatenulatum KCTC3223; conditions: strain KCTC3223; Table 5
Method: as §1

[6] = system: Bifidobacterium pseudocatenulatum SPM1309; conditions: strain SPM1309; Table 5
Method: as §1

[7] = system: Bifidobacterium adolescentis SPM1608; conditions: strain SPM1608; Table 5
Method: as §1

[8] = system: Bifidobacterium longum KCTC3128; conditions: strain KCTC3128; Table 5
Method: as §1

[9] = system: Bifidobacterium pseudocatenulatum SPM1204; conditions: strain SPM1204; Table 5
Method: as §1

[10] = system: Bifidobacterium adolescentis SPM1605; conditions: strain SPM1605; Table 5
Method: as §1

[11] = system: Bifidobacterium adolescentis SPM0308; conditions: strain SPM0308; Table 5
Method: as §1

[12] = system: Bifidobacterium adolescentis SPM1606; conditions: strain SPM1606; Table 5
Method: as §1

[13] = system: Bifidobacterium adolescentis SPM1601; conditions: strain SPM1601; Table 5
Method: as §1

[14] = system: Bifidobacterium adolescentis SPM0214; conditions: strain SPM0214; Table 5
Method: as §1

[15] = system: Bifidobacterium longum SPM1205; conditions: strain SPM1205; Table 5
Method: as §1

[16] = system: Bifidobacterium adolescentis SPM1307-A; conditions: strain SPM1307-A; Table 5
Method: as §1

[17] = system: Bifidobacterium adolescentis SPM1005; conditions: strain SPM1005; Table 5
Method: as §1

[18] = system: Bifidobacterium longum SPM1207; conditions: strain SPM1207; Table 5
Method: as §1

Compound | Minimum inhibitory concentrations (MICs) [1] [μl/Ml] | Minimum inhibitory concentrations (MICs) [2] [μl/Ml] | Minimum inhibitory concentrations (MICs) [3] | Minimum inhibitory concentrations (MICs) [4] | Minimum inhibitory concentrations (MICs) [5] [μl/Ml] | Minimum inhibitory concentrations (MICs) [6] [μl/Ml] | Minimum inhibitory concentrations (MICs) [7] | Minimum inhibitory concentrations (MICs) [8] [μl/Ml] | Minimum inhibitory concentrations (MICs) [9] [μl/Ml] | Minimum inhibitory concentrations (MICs) [10] [μl/Ml] | Minimum inhibitory concentrations (MICs) [11] | Minimum inhibitory concentrations (MICs) [12] | Minimum inhibitory concentrations (MICs) [13] [μl/Ml] | Minimum inhibitory concentrations (MICs) [14] [μl/Ml] | Minimum inhibitory concentrations (MICs) [15] | Minimum inhibitory concentrations (MICs) [16] [μl/Ml] | Minimum inhibitory concentrations (MICs) [17] [μl/Ml] | Minimum inhibitory concentrations (MICs) [18] [μl/Ml]
CCC[C@@H]1C[C@@H](C(=O)N[C@@H]([C@H]2O[C@H](SC)[C@H](O)[C@@H](O)[C@H]2O)[C@H](C)Cl)N(C)C1 [CLI, clindamycin] | 4 | 8 | 4 μl/Ml | 4 μl/Ml | 8 | 8 | 8 μl/Ml | 4 | >128 | 4 | 32 μl/Ml | 4 μl/Ml | 16 | 32 | 4 μl/Ml | 4 | 32 | 
CCCCCCCCCC(=O)N[C@@H](Cc1c[nH]c2ccccc12)C(=O)N[C@H](CC(N)=O)C(=O)N[C@@H](CC(=O)O)C(=O)N[C@@H]1C(=O)NCC(=O)N[C@@H](CCCN)C(=O)N[C@@H](CC(=O)O)C(=O)N[C@H](C)C(=O)N[C@@H](CC(=O)O)C(=O)NCC(=O)N[C@H](CO)C(=O)N[C@@H]([C@H](C)CC(=O)O)C(=O)N[C@@H](CC(=O)c2ccccc2N)C(=O)O[C@@H]1C [DAP, daptomycin] | 16 | 4 | 4 μl/Ml | 4 μl/Ml | 16 | 4 | 8 μl/Ml | 16 | 2 | 4 | 0.25 μl/Ml | 0.12 μl/Ml | 4 | 2 | 2 μl/Ml | 8 | 1 | 
CC(=O)NC[C@H]1CN(c2ccc(N3CCOCC3)c(F)c2)C(=O)O1 [LNZ, linezolid] | 8 | 1 | 8 μl/Ml | 1 μl/Ml | 8 | 2 | 8 μl/Ml | 8 | 8 | 4 | 2 μl/Ml | 2 μl/Ml | 8 | 0.25 | 2 μl/Ml | 8 | 4 | 
[H]/N=C(/N)N[C@H]1[C@H](O)[C@@H](O)[C@H](O[C@@H]2O[C@@H](C)[C@](O)(C=O)[C@H]2O[C@@H]2O[C@@H](CO)[C@H](O)[C@@H](O)[C@@H]2NC)[C@@H](N/C(N)=N\[H])[C@@H]1O [STR, streptomycin] | 128 | 8 | 128 μl/Ml | ≦0.06 μl/Ml | 128 | 32 | 32 μl/Ml | 128 | 128 | 32 | 32 μl/Ml | 0.25 μl/Ml | 64 | 32 | 8 μl/Ml | 64 | 32 | 
CN(C)c1cc(NC(=O)CNC(C)(C)C)c(O)c2c1C[C@H]1C[C@H]3[C@H](N(C)C)C(O)=C(C(N)=O)C(=O)[C@@]3(O)C(O)=C1C2=O [TIG, tigecyclin] | 0.5 | 0.12 | ≦0.06 μl/Ml | ≦0.06 μl/Ml | 0.5 | 0.25 | ≦0.06 μl/Ml | 0.5 | 0.5 | 0.5 | ≦0.06 μl/Ml | 0.12 μl/Ml | 0.25 | 0.25 | ≦0.06 μl/Ml | 0.25 | 0.5 | 
NC[C@H]1O[C@H](O[C@H]2[C@H](O)[C@@H](O[C@H]3O[C@H](CO)[C@@H](O)[C@H](N)[C@H]3O)[C@H](N)C[C@@H]2N)[C@H](N)C[C@@H]1O [TOB, tobramycin] | >128 | 32 | >128 μl/Ml | 16 μl/Ml | >128 | >128 | 128 μl/Ml | >128 | 128 | 16 | 32 μl/Ml | 16 μl/Ml | 32 | 32 | 4 μl/Ml | 64 | 32 | 
CN[C@H](CC(C)C)C(=O)N[C@H]1C(=O)N[C@@H](CC(N)=O)C(=O)N[C@H]2C(=O)N[C@H]3C(=O)N[C@H](C(=O)N[C@H](C(=O)O)c4cc(O)cc(O)c4-c4cc3ccc4O)[C@H](O)c3ccc(c(Cl)c3)Oc3cc2cc(c3O[C@@H]2O[C@H](CO)[C@@H](O)[C@H](O)[C@H]2O[C@H]2C[C@](C)(N)[C@H](O)[C@H](C)O2)Oc2ccc(cc2Cl)[C@H]1O [VAN, vancomycin] | 2 | 2 | 2 μl/Ml | ≦0.06 μl/Ml | 4 | 2 | 2 μl/Ml | 4 | 2 | 2 | 2 μl/Ml | ≦0.06 μl/Ml | 2 | 2 | 2 μl/Ml | 2 | 2 | 2
